According to patent publication US11339161B2, “Triazolo pyridines as modulators of gamma-secretase” (Boehringer Ingelheim International GmbH, priority 2017, dated 2022):
Like-named read-outs stand apart in the source and are kept apart here.

Assays:
[1] = test system: Aβ42 production; assay: Inhibition of Aβ42 production in H4 neuroglioma cells stably expressing human APP695 (MSD electrochemiluminescence); assay type: cell-based; details: for modulation of γ-secretase (in words): tables 4a/4b
Experimental: (§1) Cells were plated out to near confluency. The compounds to be tested were received as 10 mM stocks in 100% DMSO. A dilution series was initially generated in 100% DMSO and then diluted 200-fold in cell culture media such that the tested concentration range was 30 μM to 0.1 nM and the final DMSO concentration was 0.5%. The diluted compounds were incubated with the cells for 22 hours in an incubator at 37° C. and 5% CO2. Aβ42 levels were measured post-incubation from the supernatant of the cells using an Aβ42 specific electrochemiluminescence assay provided by Meso Scale Discovery (Catalog #L21CA-1). The measurement of Aβ42 levels were performed according to the manufacturer's protocol.

[2] = test system: Aβ total; assay: Aβ total levels in H4 neuroglioma cells stably expressing human APP695 (MSD electrochemiluminescence); assay type: cell-based; details: selectivity ratio vs. Aβtotal
Experimental: as §1
Aβ total levels were likewise determined using a specific electrochemiluminescence assay provided by Meso Scale Discovery (Catalog #L21ZA-1) according to the manufacturer's protocol.

[3] = biological target: LYN B (Homo sapiens, UniProt P07948); assay: Z'-LYTE SelectScreen biochemical kinase assay LYN B
Source text: (§2) Thermo Fisher Scientific SelectScreen™ Biochemical Kinase Profiling Service Z′-LYTE™ Screening Protocol and Assay Conditions Assay Theory
(§3) The […] biochemical assay employs a fluorescence-based, coupled-enzyme format and is based on the differential sensitivity of phosphorylated and non-phosphorylated peptides to proteolytic cleavage. The peptide substrate is labeled with two fluorophores—one at each end—that make up a FRET pair. In the primary reaction, the kinase transfers the gamma-phosphate of ATP to a single tyrosine, serine or threonine residue in a synthetic FRET-peptide. In the secondary reaction, a site-specific protease recognizes and cleaves non-phosphorylated FRET-peptides. Phosphorylation of FRET-peptides suppresses cleavage by the Development Reagent. Cleavage disrupts FRET between the donor (i.e., coumarin) and acceptor (i.e., fluorescein) fluorophores on the FRET-peptide, whereas uncleaved, phosphorylated FRET-peptides maintain FRET. A ratiometric method, which calculates the ratio (Emission Ratio=Coumarin emission (445 nm)/Fluorescein emission (520 nm)) of donor emission to acceptor emission after excitation of the donor fluorophore at 400 nm, is used to quantitate reaction progress, as shown in the equation below. A significant benefit of this ratiometric method for quantitating reaction progress is the elimination of well-to-well variations in FRET-peptide concentration and signal intensities. As a result, the assay yields very high Z′-factor values (>0.7) at a low percent phosphorylation. Both cleaved and uncleaved FRET-peptides contribute to the fluorescence signals and therefore to the Emission Ratio. The extent of phosphorylation of the FRET-peptide can be calculated from the Emission Ratio. The Emission Ratio will remain low if the FRET-peptide is phosphorylated (i.e., no kinase inhibition) and will be high if the FRET-peptide is non-phosphorylated (i.e., kinase inhibition).
(§4) The Test Compounds are screened in 1% DMSO (final) in the well. For 10 point titrations, 3-fold serial dilutions are conducted from the starting concentration of the customer's choosing.
(§5) All Peptide/Kinase Mixtures are diluted to a 2× working concentration in the appropriate Kinase Buffer (see section Kinase Specific Assay Conditions for a complete description).
(§6) All ATP Solutions are diluted to a 4× working concentration in Kinase Buffer (50 mM HEPES pH 7.5, 0.01% BRIJ-35, 10 mM MgCl2, 1 mM EGTA). ATP Km apparent is previously determined using a Z″-LYTE assay.
(§7) The Development Reagent is diluted in Development Buffer (see section Kinase-Specific Assay Conditions—Direct and Cascade for a complete description).
(§8) Bar-coded Corning, low volume NBS, black 384-well plate (Corning Cat. #4514) • 1. 100 nL—100× Test Compound in 100% DMSO • 2. 2.4 μL—Kinase buffer • 3. 5 μL—2× Peptide/Kinase Mixture • 4. 2.5 μL—4×ATP Solution • 5. 30—second plate shake • 6. 60—minute Kinase Reaction incubation at room temperature • 7. 5 μL—Development Reagent Solution • 8. 30—second plate shake • 9. 60—minute Development Reaction incubation at room temperature • 10. Read on fluorescence plate reader and analyze the data Z′-LYTE Assay Controls
(§9) SelectScreen Kinase Profiling Service uses XLfit from IDBS. The dose response curve is curve fit to model number 205 (sigmoidal dose-response model).
(§10) The 2×LYN B/Tyr 02 mixture is prepared in 50 mM HEPES pH 7.5, 0.01% BRIJ-35, 10 mM MgCl2, 1 mM EGTA. The final 10 μL Kinase Reaction consists of 0.85-14.8 ng LYN B and 2 μM Tyr 02 in 50 mM HEPES pH 7.5, 0.01% BRIJ-35, 10 mM MgCl2, 1 mM EGTA. After the 1 hour Kinase Reaction incubation, 5 μL of a 1:128 dilution of Development Reagent A is added.

[4] = biological target: MAP4K4 (HGK) (Homo sapiens, UniProt O95819); assay: Z'-LYTE SelectScreen biochemical kinase assay MAP4K4 (HGK)
Source text: as §2, §3, §4, §5, §6, §7, §8, §9
as §10, with “2×MAP4K4 (HGK)/Ser/Thr 07” for “2×LYN B/Tyr 02”, “0.36-1.82” for “0.85-14.8”, “MAP4K4 (HGK)” for “LYN B”, “Ser/Thr 07” for “Tyr 02”, “1:45000” for “1:128”

[5] = biological target: RET (Homo sapiens, UniProt P07949); assay: Z'-LYTE SelectScreen biochemical kinase assay RET
Source text: as §2, §3, §4, §5, §6, §7, §8, §9
as §10, with “2×RET/Tyr” for “2×LYN B/Tyr”, “0.49-3.64” for “0.85-14.8”, “RET” for “LYN B”

[6] = H4 neuroglioma cells expressing human APP695, 22 hours incubation, Table 4a
[7] = 10 μmolar compound concentration, ATP at Km app, read-out: LYN B inhibition
[8] = read-out: % Inhibition mean LYN B
[9] = 10 μmolar compound concentration, ATP at Km app, read-out: MAP4K4 (HGK) inhibition
[10] = read-out: % Inhibition mean MAP4K4 (HGK)
[11] = 10 μmolar compound concentration, ATP at Km app, read-out: RET inhibition
[12] = read-out: % Inhibition mean RET
[13] = Homo sapiens, H4 neuroglioma cells, same assay as table 4a, prior art compounds, Table 4b

Sequence of MAP4K4 (HGK) (O95819 whole entry): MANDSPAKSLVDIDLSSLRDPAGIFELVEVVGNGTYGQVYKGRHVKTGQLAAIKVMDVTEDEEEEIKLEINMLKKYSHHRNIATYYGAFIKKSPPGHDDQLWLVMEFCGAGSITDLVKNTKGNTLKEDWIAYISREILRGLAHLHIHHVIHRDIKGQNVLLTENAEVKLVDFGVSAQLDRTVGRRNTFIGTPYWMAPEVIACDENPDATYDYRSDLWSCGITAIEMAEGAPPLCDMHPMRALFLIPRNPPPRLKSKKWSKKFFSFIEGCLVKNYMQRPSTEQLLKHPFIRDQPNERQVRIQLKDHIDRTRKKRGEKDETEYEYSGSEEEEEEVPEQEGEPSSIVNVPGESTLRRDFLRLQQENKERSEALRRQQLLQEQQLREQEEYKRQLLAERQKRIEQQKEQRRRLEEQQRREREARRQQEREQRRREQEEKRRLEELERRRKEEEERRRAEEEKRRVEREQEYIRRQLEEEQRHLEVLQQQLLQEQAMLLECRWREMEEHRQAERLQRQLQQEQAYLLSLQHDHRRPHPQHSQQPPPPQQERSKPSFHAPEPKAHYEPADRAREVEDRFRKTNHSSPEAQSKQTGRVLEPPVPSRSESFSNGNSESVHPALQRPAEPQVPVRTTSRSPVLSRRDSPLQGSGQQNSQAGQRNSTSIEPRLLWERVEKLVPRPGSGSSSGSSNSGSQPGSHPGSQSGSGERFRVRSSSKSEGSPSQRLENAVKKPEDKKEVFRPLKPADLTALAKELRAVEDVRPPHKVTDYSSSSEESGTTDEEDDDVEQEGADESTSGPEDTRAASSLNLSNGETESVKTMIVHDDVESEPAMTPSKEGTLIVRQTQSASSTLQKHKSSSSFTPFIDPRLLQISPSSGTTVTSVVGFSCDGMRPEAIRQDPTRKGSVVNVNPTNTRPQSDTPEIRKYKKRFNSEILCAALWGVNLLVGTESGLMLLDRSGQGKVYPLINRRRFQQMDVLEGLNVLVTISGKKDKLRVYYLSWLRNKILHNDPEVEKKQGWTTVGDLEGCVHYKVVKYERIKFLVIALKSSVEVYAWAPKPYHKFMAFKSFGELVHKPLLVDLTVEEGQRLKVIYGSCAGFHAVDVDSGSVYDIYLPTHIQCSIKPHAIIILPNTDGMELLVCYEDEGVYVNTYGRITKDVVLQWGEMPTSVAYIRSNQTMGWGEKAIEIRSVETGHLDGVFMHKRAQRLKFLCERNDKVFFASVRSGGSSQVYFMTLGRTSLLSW
Sequence of RET (P07949 29-1114): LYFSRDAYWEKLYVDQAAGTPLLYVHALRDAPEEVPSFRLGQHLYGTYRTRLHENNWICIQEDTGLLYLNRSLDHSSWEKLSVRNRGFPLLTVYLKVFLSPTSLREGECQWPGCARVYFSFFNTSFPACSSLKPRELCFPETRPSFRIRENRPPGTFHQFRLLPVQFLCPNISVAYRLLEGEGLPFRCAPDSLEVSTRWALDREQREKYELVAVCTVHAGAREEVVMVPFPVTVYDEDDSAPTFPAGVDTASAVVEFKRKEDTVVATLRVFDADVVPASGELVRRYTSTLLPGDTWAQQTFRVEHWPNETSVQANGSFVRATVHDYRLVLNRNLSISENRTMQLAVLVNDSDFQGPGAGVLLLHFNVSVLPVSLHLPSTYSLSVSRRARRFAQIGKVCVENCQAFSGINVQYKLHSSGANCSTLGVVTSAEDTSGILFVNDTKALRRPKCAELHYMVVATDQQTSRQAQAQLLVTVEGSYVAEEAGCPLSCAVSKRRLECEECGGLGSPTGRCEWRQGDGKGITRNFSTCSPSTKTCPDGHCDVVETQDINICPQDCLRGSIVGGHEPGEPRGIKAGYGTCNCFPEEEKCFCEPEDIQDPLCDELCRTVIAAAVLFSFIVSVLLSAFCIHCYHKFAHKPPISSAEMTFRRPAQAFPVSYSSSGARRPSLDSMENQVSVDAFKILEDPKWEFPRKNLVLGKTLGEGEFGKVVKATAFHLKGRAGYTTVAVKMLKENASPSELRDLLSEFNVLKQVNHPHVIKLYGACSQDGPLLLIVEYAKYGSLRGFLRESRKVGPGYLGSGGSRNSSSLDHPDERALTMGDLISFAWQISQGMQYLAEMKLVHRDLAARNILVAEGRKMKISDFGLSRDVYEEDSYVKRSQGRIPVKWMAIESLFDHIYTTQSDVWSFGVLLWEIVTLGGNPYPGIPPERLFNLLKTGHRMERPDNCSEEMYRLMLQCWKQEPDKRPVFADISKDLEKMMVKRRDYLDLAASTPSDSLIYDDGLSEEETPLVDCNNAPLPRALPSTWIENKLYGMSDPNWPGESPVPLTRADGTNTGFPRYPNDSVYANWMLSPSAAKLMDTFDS
Sequence of LYN B (P07948 1-491 isoform P07948-2): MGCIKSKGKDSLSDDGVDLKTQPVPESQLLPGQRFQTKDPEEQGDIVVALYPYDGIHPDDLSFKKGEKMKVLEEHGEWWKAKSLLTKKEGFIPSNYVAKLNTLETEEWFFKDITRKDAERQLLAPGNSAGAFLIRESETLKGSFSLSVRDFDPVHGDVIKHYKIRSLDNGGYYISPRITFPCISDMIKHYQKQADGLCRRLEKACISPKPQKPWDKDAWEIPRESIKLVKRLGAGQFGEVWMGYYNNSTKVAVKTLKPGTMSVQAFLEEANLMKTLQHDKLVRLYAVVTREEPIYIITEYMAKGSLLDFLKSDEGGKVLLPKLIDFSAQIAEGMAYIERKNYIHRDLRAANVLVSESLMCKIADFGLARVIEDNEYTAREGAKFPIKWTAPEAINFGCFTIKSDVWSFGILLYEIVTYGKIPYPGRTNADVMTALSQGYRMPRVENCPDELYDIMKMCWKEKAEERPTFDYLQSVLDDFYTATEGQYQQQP

IC50 [1, 6]	inhibition at 10 µM [3, 7]	inhibition at 10 µM [3, 8]	inhibition at 10 µM [4, 9]	inhibition at 10 µM [4, 10]	inhibition at 10 µM [5, 11]	inhibition at 10 µM [5, 12]	IC50 [1, 13]	inhibition at 10 µM ([3]; read-out: % Inhibition mean)	inhibition at 10 µM ([4]; read-out: % Inhibition mean)	inhibition at 10 µM ([5]; read-out: % Inhibition mean)	Compound	Ratio AβTotal IC50/Aβ42 IC50 ([2]; Table 4a)	modulation of γ-secretase (in words) [1]	Ratio AβTotal IC50/Aβ42 IC50 ([2]; prior art compounds, Table 4b)
750 nM	< 40%	22%	40 to 80%	50%	< 40%	18%	–	–	–	–	CCn1nc(Cl)c2c1CCC(Nc1nc3c(-c4ccc(F)cc4C)cccn3n1)C2 (centres unmarked) [Example 48, (3-Chloro-1-ethyl-4,5,6,7-tetrahydro-1H-indazol-5-yl)-[8-(4-fluoro-2-methyl-phenyl)-[1,2,4]triazolo[1,5-a]pyridine-2-yl]-amine]	22	–	–
670 nM	< 40%	20%	40 to 80%	49%	< 40%	24%	–	–	–	–	CCn1ncc2c1CCC(Nc1nc3c(-c4ccc(C)nc4)cccn3n1)C2 (centres unmarked) [Example 67, (1-Ethyl-4,5,6,7-tetrahydro-1H-indazol-5-yl)-[8-(6-methyl-pyridin-3-yl)-[1,2,4]triazolo[1,5-a]pyridine-2-yl]-amine]	45	–	–
–	> 80%	–	> 80%	–	> 80%	–	6000 nM	98%	98%	96%	CC1(C)C(=O)Nc2ccc(Nc3nc4c(-c5cccc(F)c5)cccn4n3)cc21 [Cpd. 263 in WO09155551, reference compound]	–	rather poor modulation	2
500 nM	< 40%	15%	< 40%	39%	< 40%	16%	–	–	–	–	CCn1ncc2c1CCC(Nc1nc3c(-c4cccnc4OC)cccn3n1)C2 (centres unmarked) [Example 69, (1-Ethyl-4,5,6,7-tetrahydro-1H-indazol-5-yl)-[8-(2-methoxy-pyridin-3-yl)-[1,2,4]triazolo[1,5-a]pyridine-2-yl]-amine]	60	–	–
430 nM	< 40%	21%	< 40%	37%	< 40%	20%	–	–	–	–	Cc1cc(F)ccc1-c1cccn2nc(NC3CCc4c(cnn4C(C)C)C3)nc12 (centres unmarked) [Example 44, [8-(4-fluoro-2-methyl-phenyl)-[1,2,4]triazolo[1,5-a]pyridine-2-yl]-(1-isopropyl-4,5,6,7-tetrahydro-1H-indazol-5-yl)-amine]	64	–	–
2200 nM	< 40%	7%	< 40%	-8%	< 40%	2%	–	–	–	–	CCn1nnc2c1CCC(Nc1nc3c(-c4ccc(F)cc4C)cccn3n1)C2 (centres unmarked) [Example 51, (1-Ethyl-4,5,6,7-tetrahydro-1H-benzotriazol-5-yl)-[8-(4-fluoro-2-methyl-phenyl)-[1,2,4]triazolo[1,5-a]pyridine-2-yl]-amine]	2	–	–
40 nM	< 40%	31%	40 to 80%	74%	40 to 80%	62%	–	–	–	–	CCn1ncc2c1CCC(Nc1nc3c(-c4cncc(Cl)c4)cccn3n1)C2 (centres unmarked) [Example 73, [8-(5-Chloro-pyridin-3-yl)-[1,2,4]triazolo[1,5-a]pyridine-2-yl]-(1-ethyl-4,5,6,7-tetrahydro-1H-indazol-5-yl)-amine]	420	–	–
–	> 80%	–	> 80%	–	> 80%	–	> 10000 nM	97%	99%	98%	CC1(C)NC(=O)c2ccc(Nc3nc4c(-c5cccc(F)c5)cccn4n3)cc21 [Cpd. 302 in WO09155551, reference compound]	–	do not show any modulation	1
70 nM	< 40%	20%	40 to 80%	58%	< 40%	–	–	–	–	–	CCn1ncc2c1CCC(Nc1nc3c(-c4ccccc4)cccn3n1)C2 (centres unmarked) [Example 57, (1-Ethyl-4,5,6,7-tetrahydro-1H-indazol-5-yl)-(8-phenyl-[1,2,4]triazolo[1,5-a]pyridine-2-yl)-amine]	104	–	–
194 nM	< 40%	8%	< 40%	11%	< 40%	23%	–	–	–	–	CCn1ncc2c1CC[C@H](Nc1nc3c(-c4ccc(F)c(Cl)c4)cccn3n1)C2 [Example S-61, (S)-[8-(3-Chloro-4-fluoro-phenyl)-[1,2,4]triazolo[1,5-a]pyridine-2-yl]-(1-ethyl-4,5,6,7-tetrahydro-1H-indazol-5-yl)-amine]	42	–	–
3400 nM	< 40%	15%	< 40%	2%	< 40%	30%	–	–	–	–	Cc1cc(F)ccc1-c1cccn2nc(NC3CCc4c(cnn4CC(C)C)C3)nc12 (centres unmarked) [Example 45, [8-(4-fluoro-2-methyl-phenyl)-[1,2,4]triazolo[1,5-a]pyridine-2-yl]-(1-isobutyl-4,5,6,7-tetrahydro-1H-indazol-5-yl)-amine]	4	–	–
